# Reference: the supplement of paper PMC6580486
# Tested on: U23674 (mouse alveolar rhabdomyosarcoma primary culture)
# 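Note: alveolar rhabdomyosarcoma tumor culture.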
row,Structure (SMILES),IC50 cell viability [µM]
1,CCn1c(-c2nonc2N)nc2c(C#CC(C)(C)O)nc(OCCNC)cc21,1.3
2,Nc1nc(-c2cccc(Cl)c2)c(-c2ccc3ncccc3n2)s1,> 10
3,ON=C1CCc2cc(-c3nc(C4CCNCC4)[nH]c3-c3ccncc3)ccc21,> 10
4,Nc1nc(-c2ccc3c(c2)C(=Cc2cc(Br)c(O)c(Br)c2)C(=O)N3)cs1,> 10
5,N#Cc1cccc(Nc2nccc(-c3cnn4ncccc34)n2)c1,0.05
6,O=C(O[C@H]1CN[C@H](C#Cc2cc3ncnc(Nc4ccc(Cc5ccccc5)cc4)c3s2)C1)N1CCOCC1,> 10
7,Cc1ccc(NC(=O)CC2CC2)cc1-c1ccc(C(=O)NCC2CC2)cc1,3.4
8,c1ccc(COc2ccc(Nc3ncnc4ccc(-c5ccco5)cc34)cc2)cc1,> 10
9,Fc1ccc(-c2nn3ccccc3c2-c2ccncc2)cc1,> 10
10,NS(=O)(=O)c1ccc(N=Nc2c(O)[nH]c3ccc(-c4cnco4)cc23)cc1,> 10
11,CCn1c(-c2nonc2N)nc2cnc(Oc3cccc(NC(=O)c4ccc(OCCN5CCOCC5)cc4)c3)cc21,> 10
12,Fc1ccc(-c2nn3ncccc3c2-c2ccnc(Nc3ccc4c(c3)OCCO4)n2)cc1,> 10
13,CC(C)(CO)CNC(=O)c1ccc2[nH]c(O)c(N=Nc3ccc(S(N)(=O)=O)cc3)c2c1,> 10
14,Cn1cc(C=C2C(=O)Nc3cccnc32)c2ccccc21,> 10
15,O=C1NC(=O)C(c2cccc(Cl)c2)=C1Nc1ccc(Cl)c(C(=O)O)c1,> 10
16,COc1ccc(COc2ccc(Cc3cnc(N)nc3N)cc2OC)cc1,> 10
17,COc1cc(C)c(N(C)C(=O)CN(C)C)cc1Nc1nc(Nc2cccc(F)c2C(N)=O)c2cc[nH]c2n1,> 10
18,Clc1ccc(-c2nn3ncccc3c2-c2ccnc(Nc3ccccc3)n2)cc1,> 10
19,CC1=C(C(=O)Nc2ccc3n[nH]c(C)c3c2)C(c2ccc(C(F)(F)F)cc2)CC(=O)N1 (configuration not stated),> 10
20,N#Cc1ccc(Oc2nccc(-c3c(-c4ccc(F)cc4)ncn3C3CCNCC3)n2)cc1,> 10
21,CCn1c(-c2nonc2N)nc2cnc(Oc3cccc(NC(=O)c4ccc(N(C)C)cc4)c3)cc21,> 10
22,NS(=O)(=O)c1ccc(Nc2ncc(-c3ccccc3)o2)cc1,> 10
23,COC(=O)Nc1nc2ccc(Oc3ccc(NC(=O)Nc4cccc(Cl)c4)cc3)cc2[nH]1,> 10
24,NS(=O)(=O)c1ccc(Nc2cc(-c3ccc(O)c(F)c3)[nH]n2)cc1,> 10
25,CCOc1ccc2c(-c3ccnc(Nc4cc(OC)cc(C(F)(F)F)c4)n3)cnn2n1,> 10

row,Structure (SMILES),IC50 cell viability [µM]
1,CCN1CCC(CC(=O)Nc2n[nH]c3nc(-c4cccs4)c(Br)cc23)CC1,1.3
2,O=C1Nc2ccccc2C1=C1CCc2cc(O)ccc21,> 10
3,CN1CCC(C(=O)Nc2n[nH]c3nnc(-c4ccccc4)cc23)CC1,> 10
4,Cc1ccc(C(=O)NC2CCC2)cc1-c1ccc(C(=O)NCC2CC2)cc1,> 10
5,NS(=O)(=O)c1ccc(N=Nc2c(O)[nH]c3ccc(Cl)cc23)cc1,> 10
6,CCCN1CCC(c2ccc(Nc3nc(Nc4cc(F)ccc4C(N)=O)c4cc[nH]c4n3)c(OC)c2)CC1,> 10
7,O=C1Nc2ccc(C(=O)c3ccco3)cc2/C1=C/c1cc(Cl)c(O)c(Cl)c1,> 10
8,NS(=O)(=O)c1ccc(N=Cc2c(O)[nH]c3ccc4ncsc4c23)cc1,> 10
9,CS(=O)(=O)CCNCc1ccoc1-c1ccc2ncnc(Nc3ccc(OCc4ccccc4)cc3)c2c1,> 10
10,Cc1nn(C)c2cc(N(C)c3ccnc(Nc4cccc(S(N)(=O)=O)c4)n3)ccc12,> 10
11,CC(=O)Nc1cccc(C#Cc2cncnc2Nc2ccc(OCc3cccc(F)c3)c(Cl)c2)n1,> 10
12,CCCNc1cccc(-n2ncc3c(N/N=C/c4ccncc4)ncnc32)c1,> 10
13,CC1=C(C(=O)Nc2ccc3[nH]ncc3c2)C(c2ccc3ccccc3c2)CC(=O)N1 (configuration not stated),> 10
14,CN(C)CCOc1ccc(-c2nc(-c3ccncc3)c(-c3ccc4c(c3)CC/C4=N\O)[nH]2)cc1,> 10
15,Fc1ccc(-c2ncn(C3CCNCC3)c2-c2ccnc(Oc3ccc(F)c(F)c3)n2)cc1,6.2
16,CNC(=O)c1cncc(/C=C/c2ccccc2C)c1,> 10
17,O=C1Nc2ccc(I)cc2C1=Cc1cc(Br)c(O)c(Br)c1,> 10
18,COc1c(C(N)=O)cc(-c2ccc(Cl)cc2)cc1-c1ccc(S(N)(=O)=O)cc1,> 10
19,Fc1cccc(COc2ccc(Nc3ncnc4sc(-c5cccs5)cc34)cc2Cl)c1,> 10
20,C[C@@H](Oc1cc(-n2cnc3ccc(OC4CCN(C)CC4)cc32)sc1C(N)=O)c1ccccc1Cl,0.9
21,COc1cc2ncn(-c3cc(OCc4ccccc4C(F)(F)F)c(C(N)=O)s3)c2cc1OC,> 10
22,COC(=O)c1cncc(/C=C/c2c(C)cc(O)cc2C)c1,> 10
23,COc1cc(N2CCN(C(C)C)CC2)ccc1Nc1nc(Nc2ccc(F)cc2C(=O)NC[C@@H](O)CO)c2cc[nH]c2n1,> 10
24,O=C1Nc2ccc(-c3cccnc3)cc2C1=Cc1cc(Br)c(O)c(Br)c1,> 10
25,NC(=O)c1cc(-c2ccc(F)cc2)cc(-c2ccncc2)c1N,> 10

row,Structure (SMILES),IC50 cell viability [µM]
1,COc1cccc(-n2ncc3c(N/N=C/c4ccc(F)cc4)ncnc32)c1,> 10
2,c1ccc(-c2[nH]ncc2-c2ccnc(-c3ccc(OCCN4CCOCC4)cc3)c2)nc1,> 10
3,CN(C)c1ccc2[nH]c(O)c(C=Nc3ccc(S(N)(=O)=O)cc3)c2c1,> 10
4,O=C(Nc1n[nH]c2cc(-c3ccccc3)ccc12)C1CC1,> 10
5,O=c1[nH]c2ccc(N=Cc3c(O)[nH]c4ccccc34)cc2[nH]1,> 10
6,COc1cc(Nc2ncc(-c3ccccc3)o2)cc(OC)c1,> 10
7,CNC(=O)c1sc(-n2cnc3cc(OC)c(OC)cc32)cc1OCc1ccccc1C(F)(F)F,> 10
8,CCn1c(-c2nonc2N)nc2c(N3CCCC3)nccc21,> 10
9,Fc1ccc(-c2ncn(C3CCNCC3)c2-c2ccnc(Oc3ccccc3)n2)cc1,3.3
10,NC(=O)c1cccc(Nc2nccc(Nc3cccc4[nH]ncc34)n2)c1,> 10
11,CCCN(CCS(C)(=O)=O)Cc1ccc(-c2ccc3ncnc(Nc4ccc(OCc5cccc(F)c5)c(Cl)c4)c3c2)o1,> 10
12,CS(=O)(=O)CCNCc1cc(-c2cc3c(Nc4ccc(OCc5cccc(F)c5)c(Cl)c4)ncnc3s2)cs1,> 10
13,NS(=O)(=O)c1cccc(-c2ccc3c(NC(=O)C4CC4)n[nH]c3c2)c1,> 10
14,COc1cc2c(cc1Nc1nc(Nc3cccc(F)c3C(N)=O)c3cc[nH]c3n1)N(C(=O)CN1CCN(C(C)C)CC1)CC2,3.2
15,CN(C)CCOc1ccc(-c2cc(-c3ccc4c(c3)CCC4=NO)c(-c3ccncc3)o2)cc1,> 10
16,OCc1ccc(-c2nc(-c3ccc4c(c3)OCO4)c(-c3ccccn3)[nH]2)cc1,> 10
17,COc1ccccc1Nc1ncc(-c2ccccc2)o1,> 10
18,CNC(=O)c1cncc(/C=C/c2c(C)cccc2C)c1,> 10
19,O=C(Nc1n[nH]c2nc(-c3ccco3)ccc12)C1CC1,> 10
20,Cn1c(-c2nonc2N)nc2cnccc21,> 10
21,COc1cc2c(cc1Nc1nc(N3CCc4ccccc43)c3cc[nH]c3n1)N(C(=O)CN(C)C)CC2,0.05
22,c1ccc(-c2nc3n(c2-c2ccc4c(c2)OCO4)CCC3)nc1,> 10
23,COc1ccc(-c2nn3ncccc3c2-c2ccnc(Nc3ccc(F)c(F)c3)n2)cc1,> 10
24,CCn1cc(-c2ccnc3[nH]ccc23)c(-c2cccc(NC(=O)Nc3ccc(OCc4ccccc4)cc3)c2)n1,> 10
25,Cc1ccc(NC(=O)c2ccoc2)cc1-c1ccc(C(=O)NCC2CC2)cc1,> 10

row,Structure (SMILES),IC50 cell viability [µM]
1,COc1ccc(Nc2ncc(-c3ccccc3)o2)cc1OC,> 10
2,O=C(Nc1n[nH]c2nc(-c3ccco3)c(Br)cc12)C1CC1,> 10
3,COc1ccc2cc(-c3c(-c4ccncc4)nc(-c4ccc([S+](C)[O-])cc4C)n3C)ccc2c1 (configuration not stated),> 10
4,CS(=O)(=O)CCNCc1ccc(-c2ccc3ncnc(Nc4ccc(OCc5cccc(F)c5)c(C(F)(F)F)c4)c3c2)o1,4.8
5,NC(=O)c1cccc(Nc2nccc(Nc3cccc(F)c3)n2)c1,> 10
6,NS(=O)(=O)c1ccc(-c2ccc3c(NC(=O)C4CC4)n[nH]c3c2)cc1,> 10
7,CN1CCC(n2cnc(-c3ccc(F)cc3)c2-c2ccnc(N)n2)CC1,> 10
8,Cc1ccc(NC(=O)c2ccnc(N3CCCC3)c2)cc1-c1ccc(C(=O)NCC2CC2)cc1,> 10
9,COc1ccc(-c2coc3ncnc(N)c23)cc1,> 10
10,COc1cc2ncn(-c3cc(O[C@@H](C)c4ccccc4Cl)c(C(N)=O)s3)c2cc1OC,> 10
11,Cc1ccc(-c2cc3c(NC(=O)C4CC4)ncnc3o2)cc1,> 10
12,[O-][S+]1CCN(Cc2ccc(-c3ccc4ncnc(Nc5ccc(OCc6ccccc6)c(F)c5)c4c3)o2)CC1,> 10
13,NC(=O)c1ccc(Oc2nccc(-c3c(-c4ccc(F)cc4)ncn3C3CCNCC3)n2)cc1,> 10
14,COc1cc2c(cc1Nc1nc(Nc3ccsc3C(N)=O)c3cc[nH]c3n1)N(C(=O)CN(C)C)CCC2,0.05
15,COc1ccc(-c2cc(-c3cn[nH]c3-c3ccccn3)ccn2)cc1,> 10
16,Cc1ccc(O)cc1Nc1ccnc2cc(-c3ccccn3)ccc12,> 10
17,CCn1c(-c2nonc2N)nc2ccncc21,> 10
18,COc1ccc2cc(-c3c(-c4ccncc4)nc(-c4ccc([S+](C)[O-])cc4)n3C)ccc2c1 (configuration not stated),> 10
19,Nc1ncnc2occ(-c3ccc(NC(=O)Nc4cc(C(F)(F)F)ccc4F)cc3)c12,> 10
20,O=S(=O)(CCNCc1ccc(-c2ccc3ncnc(Nc4ccc(OCc5cccc(F)c5)c(Cl)c4)c3c2)o1)c1ccccc1,> 10
21,Nc1ccc(C#Cc2cncnc2Nc2ccc(OCc3cccc(F)c3)c(Cl)c2)cc1,> 10
22,CN1CCN(C(=O)c2ccc(NC(=O)Nc3ccc(N(C)c4ccnc(Nc5ccc(CS(C)(=O)=O)cc5)n4)cc3)cc2)CC1,> 10
